Test results: publication PMC10021052, “Novel multivalent S100A8 inhibitory peptides attenuate tumor progression and metastasis by inhibiting the TLR4-dependent pathway” (Cancer Gene Therapy, 2023)
“Also recorded” adds a separate entry of the source.

Assays:
LLC tumor = experiment: Tumor growth in LLC tumor-bearing mice; conditions: *P < 0.05 vs control; for LLC tumor growth, monotherapy: 10 mg/kg i.p. every 3 days, five mice per group
Excerpt: Balb nu/nu or C57BL/6J mice were purchased from Clea Japan Inc. (Tokyo, Japan). Mice were used for experiments at 2–3 months of age. For SW480 transplanted xenograft model, SW480 cells were subcutaneously implanted into male Balb nu/nu mice. […] For generation of the Lewis lung cancer implantation mouse model, LLC cells were subcutaneously implanted into male C57BL/6J mice. […] Anti-PD-1 antibodies (Biolegend, San Diego, CA, USA) were used for combination therapy. To determine the tumor volume, the longitudinal diameter (length) and transverse diameter (width) were determined. Tumor volume based on measurements by Vernier calipers was calculated as tumor volume = ½ (length × width^2). For in vivo S100A8 stimulation, C57BL/6J mice were intravenously injected with mammalian-derived S100A8. Four hours after the i.v. injection, mice were sacrificed, and minced mouse lungs were digested with collagenase/dispase/DNase solution. Collected cells were incubated with anti-CD11b-PE (BD Bioscience), anti-Ly6G-FITC (BD Bioscience), and anti-Ly6C-APC (BD Bioscience) antibodies, and analyzed by a flow cytometry (Cytomics FC500; Beckman Coulter, Brea, CA, USA). […] After 24 h, PKH26 (Sigma-Aldrich)-fluorescent-labeled LLC cells were intravenously injected into TCM-stimulated C57BL6J mice. The mice were sacrificed after 16 h, and minced mouse lungs were digested with collagenase/dispase/DNase solution. The recruitment of MDSCs or PKH-26 labeled tumor cells in the lungs was determined by flow cytometry (CytoFlex; Beckman Coulter).
Briefly, LLC cells were implanted s.c. into C57BL/6 J mice. […] Tumor volumes for individual mice were determined at the indicated time points. Each group included five mice. […] Tumor size was determined at the indicated time points. […] Each group included 5–6 mice. The mice were administered tumor conditioned medium once daily for five consecutive days. […] The PKH-26 labeled LLC tumor cells were injected intravenously, the mice were sacrificed, and the cell number was analyzed after 16 h. Each group included 5–6 mice.

[1] = test system: MC38 colorectal cancer cells; experiment: Tumor suppression in MC38 model; format: in vivo, mouse; conditions: with anti-PD-1 antibody, Supplementary Fig. 3B
Excerpt: (§1) Because S100A8 inhibitory peptides target S100A8-TLR4/MD-2, which plays a role in innate immunity, the complete functional activities of S100A8 inhibitory peptides are expected to be observed in immunocompetent models. To date, syngeneic models are one of the only options to test physiological interactions between tumors and immune cells. […] LLC cells were identified as non-responders to anti-PD-1/programmed death-ligand 1 (PD-L1) therapy. […] We then examined the effect of divalent peptide3A5 in mouse MC38 colorectal cancer cells used as anti-PD-1 responder cells. We previously confirmed that MC38 endogenously expressed TLR4/MD-2 [8].

C57BL6 mice = experiment: Toxicity in C57BL6 mice; format: in vivo, mouse; conditions: Supplementary Table 1
Excerpt: as §1

Balb nu/nu mice = experiment: Toxicity: biochemical, body weight and hematological tests; format: in vivo, mouse; conditions: Supplementary Table 1
Excerpt: We then examined the effect of divalent peptide3A5 on tumor growth in vivo.

[2] = test system: subcutaneous SW480 tumors; experiment: Immunohistochemistry of subcutaneous SW480 tumors: proliferation and caspase-3; format: in vivo, Balb nu/nu mice; conditions: Supplementary Fig. 2
Procedure: (§2) To immunostain tumor vasculatures, the cryo sections (6 µm) obtained from frozen primary tumors, were incubated with anti-CD31 (BD Pharmingen, Cat No. 550274), and/or anti-α-SMA-Cy3 (Sigma-Aldrich, Cat No. C6198) followed by AlexaFlour 488-conjugated rat IgG secondary antibodies (Thermo Fisher Scientific) were used to visualize the signals by a confocal microscopy (LSM-710; Carl Zeiss). DAPI staining was used for nuclear staining. For immunohistochemistry, the paraffin-embedded sections were cut 4 µm thick and then deparaffinized, rehydrated and then treated for antigen retrieval. The sections were incubated with the indicated antibody overnight, followed by incubation with ImmPRESS HRP Reagent (Vector, Newark, CA). ImmPACT DAB (Vector) was used for visualization of the signals. The images were captured by BZ-X800 (Keyence, Osaka, Japan).

SW480 cells = experiment: ELISA, IL-8 and VEGF secretion of SW480 cells; format: cell-based, human; conditions: peptide pretreatment, S100A8 24 h, supernatant ELISA; *P < 0.05 vs S100A8
Procedure: S100A8 recombinant protein was purified as previously described. These proteins were immobilized on Maxisorp plates (Thermo Fisher Scientific, Waltham, MA, USA), followed by blocking with protein-free blocking buffer (Thermo Fisher Scientific). TLR4/MD-2 recombinant proteins with various concentrations of candidate peptides were then added to the indicated S100A8-immobilized ELISA plates for 2 h. The plates were washed, incubated with anti-TLR4 antibody, and HRP-conjugated secondary antibody, followed by the addition of substrate. The reaction was stopped by addition a 2N H2SO4 solution. Absorbance OD450/OD650 was measured using a microplate reader (Thermo Fisher Scientific). Maxisorp plates were also used for peptide coating. After blocking with protein-free blocking buffer, the coated plates were washed, and TLR4/MD-2 recombinant protein (2 µg/ml) was added to each well. The plates were incubated with a TLR4 antibody followed by horseradish peroxidase (HRP)-labeled anti-rabbit IgG. For detection of IL8 and VEGF in culture supernatants, SW480 cells were pretreated with the indicated peptides, and followed by stimulation with S100A8 for 24 h. The amount of interleukin-8 (IL-8) or VEGF in the supernatants were analyzed by ELISA kits (R&D Systems, Mineapolis, MN) according to the manufacturer’s instructions.

[3] = test system: tumor cells and macrophages; experiment: Cytokine/chemokine induction in tumor cells and macrophages; format: cell-based; conditions: possible mechanism scheme, Fig. 7I
[4] = test system: tumor vasculature of SW480 xenograft; experiment: Tumor vasculature and pericyte coverage (CD31, α-SMA) in SW480 tumors; format: in vivo, Balb nu/nu mice
Procedure: as §2

CD8+ cells = experiment: Intratumoral infiltrating CD8+ cells; format: in vivo, mouse; conditions: Supplementary Fig. 3A
Procedure: as §2

[5] = test system: SW480-transplanted xenograft; experiment: Tumor growth in SW480-transplanted xenograft model; format: in vivo, Balb nu/nu mice; conditions: every 3 days; for tumor growth, divalent peptide3A5 monotherapy: SW480 xenograft, various doses, n = 5–6 mice per group; for tumor growth, combination with 5-FU: divalent peptide3A5 5 mg/kg i.p. + 5-FU 20 mg/kg i.p.

FQEFAILVIK [Divalent peptide3A5, divalent peptide of peptide3A5 using Fmoc-Lys (Fmoc)-OH to form two branches]
LLC tumor growth, monotherapy (LLC tumor): suppresses tumor progression
LLC tumor growth, monotherapy (LLC tumor; listed as divalent peptide3A5): inhibited in vivo tumor growth; also recorded: suppressed tumor growth in tumor-bearing mice
LLC tumor, combination with anti-PD-1 antibody (LLC tumor; with anti-PD-1 every 3 days, 5–6 mice per group): improved the efficacy of anti-programmed death (PD)1 antibody; also recorded: increased the efficacy of anti-PD-1 therapy
MC38 tumor suppression, combination with anti-PD-1 [1]: significantly improved the efficacy of anti-PD-1 therapy; also recorded: increased the efficacy of anti-PD-1 therapy
toxicity in C57BL6 mice (C57BL6 mice): did not display any toxicity
serum ALT (Balb nu/nu mice; 10 mg/kg): normal
serum AST (Balb nu/nu mice; 10 mg/kg): normal
serum LDH (Balb nu/nu mice; 10 mg/kg): normal
body weight (Balb nu/nu mice): no significant difference
hematological test (Balb nu/nu mice): no significant difference
caspase-3 activation in SW480 tumors [2]: caused caspase-3 activation
tumor cell proliferation in SW480 tumors [2]: suppressed tumor cell proliferation
S100A8-mediated IL-8 secretion (SW480 cells): suppressed
S100A8-mediated VEGF secretion (SW480 cells): suppressed
induction of cytokines/chemokines [3]: suppress the induction of cytokines/chemokines in both tumor cells and macrophages
pericyte coverage (α-SMA/CD31) ([4]; 5 mg/kg or 10 mg/kg): significantly increased the pericyte coverage
tumor vasculature ([4]; anti-CD31 staining): significantly diminished
intratumoral infiltrating CD8+ cells, alone (CD8+ cells; LLC tumor-bearing mice): increased
intratumoral infiltrating CD8+ cells, combination with anti-PD-1 (CD8+ cells; combination with anti-PD-1 antibody): increased
tumor growth, divalent peptide3A5 monotherapy [5]: inhibits tumor growth
tumor growth, divalent peptide3A5 monotherapy ([5]; listed as divalent peptide3A5): suppressed tumor progression in a dose-dependent manner; also recorded: dose-dependently inhibited tumor growth; also recorded: inhibited tumor growth in vivo
tumor growth, combination with 5-FU [5]: synergistically inhibits tumor growth with 5-FU combination
tumor growth, combination with 5-FU ([5]; listed as divalent peptide3A5): synergistically suppressed tumor growth
tumor growth, combination with bevacizumab ([5]; divalent peptide3A5 5 mg/kg i.p. + bevacizumab 4 mg/kg i.p.): synergistically suppressed tumor growth; also recorded: synergistically inhibited tumor growth with bevacizumab
